Assay results: patent US11096939B2, “KRAS G12C inhibitors and methods of using the same” (Amgen Inc., priority 2018, dated 2021)
Read-outs that look alike come from different tables or passages of the source.

Experiments:
[1] = target: GDP-bound KRAS protein (aa 1-169), containing both G12C and C118A amino acid substitutions (Homo sapiens, UniProt P01116, C118A/G12C); experiment: Coupled nucleotide exchange assay (SOS-mediated, AlphaScreen); assay type: biochemical; settings: compound pre-incubation either 5 min or 2 hours (not stated per value); SOS and GTP added, cRAF AlphaScreen readout
GDP-bound KRAS protein (aa 1-169), containing both G12C and C118A amino acid substitutions, sequence (P01116 1-169 isoform P01116-2 G12C/C118A): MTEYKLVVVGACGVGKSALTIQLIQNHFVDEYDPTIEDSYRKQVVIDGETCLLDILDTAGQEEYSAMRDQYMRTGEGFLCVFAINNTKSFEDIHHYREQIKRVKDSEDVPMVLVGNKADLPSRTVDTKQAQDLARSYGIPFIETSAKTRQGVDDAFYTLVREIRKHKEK
Experimental: Coupled Nucleotide Exchange Assay:
Following compound pre-incubation, purified SOS protein (aa 564-1049) and GTP (Roche 10106399001) were added to the assay wells and incubated for an additional 30 min (for 5 min compound pre-incubation) or 1 hour (for 2 hour compound pre-incubation). To determine the extent of inhibition of SOS-mediated nucleotide exchange, purified GST-tagged cRAF (aa 1-149), nickel chelate AlphaLISA acceptor beads (PerkinElmer AL108R), and AlphaScreen glutathione donor beads (PerkinElmer 6765302) were added to the assay wells and incubated for 10 minutes. The assay plates were then read on a PerkinElmer EnVision Multilabel Reader, using AlphaScreen® technology, and data were analyzed using a 4-parameter logistic model to calculate IC50 values.

[2] = system: Phosphorylation of ERK1/2 in MIA PaCa-2 cells; experiment: Phospho-ERK1/2 MSD assay; assay type: cell-based; settings: compound 2 or 4 hours, 10 ng/mL EGF for 10 min, read-out: p-ERK IC50 (MIA-PaCa-2)
Experimental: Phospho-ERK1/2 MSD Assay:
MIA PaCa-2 (ATCC® CRL-1420™)-cells were cultured in RPMI 1640 Medium (ThermoFisher Scientific 11875093) containing 10% fetal bovine serum (ThermoFisher Scientific 16000044) and 1× penicillin-streptomycin-glutamine (ThermoFisher Scientific 10378016). Sixteen hours prior to compound treatment, MIA PaCa-2 cells were seeded in 96-well cell culture plates at a density of 25,000 cells/well and incubated at 37° C., 5% CO2. A compound dose-response titration was diluted in growth media, added to appropriate wells of a cell culture plate, and then incubated at 37° C., 5% CO2 for 2 or 4 hours. Following compound treatment, cells were stimulated with 10 ng/mL EGF (Roche 11376454001) for 10 min, washed with ice-cold Dulbecco's phosphate-buffered saline, no Ca^2+ or Mg^2+ (ThermoFisher Scientific 14190144), and then lysed in RIPA buffer (50 mM Tris-HC pH 7.5, 1% Igepal, 0.5% sodium deoxycholate, 150 mM NaCl, and 0.5% sodium dodecyl sulfate) containing protease inhibitors (Roche 4693132001) and phosphatase inhibitors (Roche 4906837001). Phosphorylation of ERK1/2 in compound-treated lysates was assayed using Phospho-ERK1/2 Whole Cell Lysate kits (Meso Scale Discovery KI51DWD) according to the manufacturer's protocol. Assay plates were read on a Meso Scale Discovery Sector Imager 6000, and data were analyzed using a 4-parameter logistic model to calculate IC50 values.

[3] = Homo sapiens, MIA PaCa-2, MIA PaCa-2 cells

| SMILES | Coupled Exchange IC50 [1] [µM] | IC50 ([2]; MIA PaCa-2 cells) [µM] | IC50 [2, 3] [µM] |
| --- | --- | --- | --- |
| C=CC(=O)N1C[C@H](C)N(C2=NC(=O)C(C)(C3CC3)c3nc(-c4ccccc4F)c(Cl)cc32)C[C@H]1C (single isomer, unassigned) [Example 1-2-1] | 5.15 | 1.45 | – |
| C=CC(=O)N1C[C@H](C)N(C2=NC(=O)C3(CCc4ccccc43)c3nc(-c4ccccc4F)c(Cl)cc32)C[C@H]1C (single isomer, unassigned) [Example 1-7-1] | 5.28 | 1.72 | – |
| C=CC(=O)N1C[C@H](C)N(C2=NC(=O)C(C)(c3ccccc3)c3nc(-c4ccccc4F)c(Cl)cc32)C[C@H]1C (single isomer, unassigned) [Example 1-5-2] | 14.9 | – | – |
| C=CC(=O)N1C[C@H](C)N(C2=NC(=O)C(C)(CC(C)C)c3nc(-c4ccccc4F)c(Cl)cc32)C[C@H]1C (single isomer, unassigned) [Example 1-8-2] | 4.95 | 1.62 | – |
| C=CC(=O)N1C[C@H](C)N(C2=NC(=O)C(C)(c3ccccc3)c3nc(-c4ccccc4F)c(Cl)cc32)C[C@H]1C (single isomer, unassigned) [Example 1-5-1] | 186 | – | – |
| C=CC(=O)N1C[C@H](C)N(C2=NC(=O)C(C)(CC)c3nc(-c4ccccc4F)c(Cl)cc32)C[C@H]1C (single isomer, unassigned) [Example 1-4-2] | 139 | – | – |
| C=CC(=O)N1C[C@H](C)N(C2=NC(=O)C(C)(C3CC3)c3nc(-c4ccccc4F)c(Cl)cc32)C[C@H]1C (single isomer, unassigned) [Example 1-2-2] | >250 | – | – |
| C=CC(=O)N1C[C@H](C)N(C2=NC(=O)C(C)(C3CCCC3)c3nc(-c4ccccc4F)c(Cl)cc32)C[C@H]1C (single isomer, unassigned) [Example 1-1-2] | 1.43 | – | – |
| C=CC(=O)N1CCN(C2=NC(=O)C(C)(CC(C)C)c3nc(-c4ccccc4F)c(Cl)cc32)[C@@H](C)C1 (single isomer, unassigned) [Example 3-1-2] | 13.3 | – | 1.77 |
| C=CC(=O)N1C[C@H](C)N(C2=NC(=O)C(C)(C3CCC3)c3nc(-c4ccccc4F)c(Cl)cc32)C[C@H]1C (single isomer, unassigned) [Example 1-3-2] | 0.55 | – | 0.35 |
| C=CC(=O)N1C[C@H](C)N(C2=NC(=O)C(C)(CC(C)C)c3nc(-c4ccccc4F)c(Cl)cc32)C[C@H]1C (single isomer, unassigned) [Example 1-8-1] | 53.8 | – | – |
| C=CC(=O)N1C[C@H](C)N(C2=NC(=O)C(C)(C3CCCC3)c3nc(-c4ccccc4F)c(Cl)cc32)C[C@H]1C (single isomer, unassigned) [Example 1-1-1] | 250 | – | – |
| C=CC(=O)N1C[C@H](C)N(C2=NC(=O)C3(CCc4ccccc43)c3nc(-c4ccccc4F)c(Cl)cc32)C[C@H]1C (single isomer, unassigned) [Example 1-7-2] | 7.74 | 3.26 | – |
| C=CC(=O)N1C[C@H](C)N(C2=NC(=O)C(C)(C3CCC3)c3nc(-c4ccccc4F)c(Cl)cc32)C[C@H]1C (single isomer, unassigned) [Example 1-3-1] | 201 | – | – |
| C=CC(=O)N1C[C@H](C)N(C2=NC(=O)C(C)(CC)c3nc(-c4ccccc4F)c(Cl)cc32)C[C@H]1C (single isomer, unassigned) [Example 1-4-1] | 11.2 | – | 2.74 |
| C=CC(=O)N1CCN(C2=NC(=O)C(C)(CC(C)C)c3nc(-c4ccccc4F)c(Cl)cc32)[C@@H](C)C1 (single isomer, unassigned) [Example 3-1-1] | 94.7 | – | – |

Further lines, results first:

| Coupled Exchange IC50 [1] [µM] | IC50 ([2]; MIA PaCa-2 cells) [µM] | IC50 [2, 3] [µM] | SMILES |
| --- | --- | --- | --- |
| 18.6 | – | – | C=CC(=O)N1C[C@H](C)N(C2=NC(=O)C(C3CC3)(C3CC3)c3nc(-c4ccccc4F)c(Cl)cc32)C[C@H]1C [Example 2-1, 5-((2S,5R)-4-Acryloyl-2,5-dimethylpiperazin-1-yl)-3-chloro-8,8-dicyclopropyl-2-(2-fluorophenyl)-1,6-naphthyridin-7(8H)-one] |
| 5.78 | 3.69 | – | C=CC(=O)N1C[C@H](C)N(C2=NC(=O)C(C)(CC(C)C)c3nc(-c4ccccc4F)c(Cl)cc32)C[C@H]1C (stereo partly drawn) [Example 1-8, 5-((2S,5R)-4-Acryloyl-2,5-dimethylpiperazin-1-yl)-3-chloro-2-(2-fluorophenyl)-8-isobutyl-8-methyl-1,6-naphthyridin-7(8H)-one] |
| 19.3 | – | – | C=CC(=O)N1C[C@H](C)N(C2=NC(=O)C(C)(CC)c3nc(-c4ccccc4F)c(Cl)cc32)C[C@H]1C (stereo partly drawn) [Example 1-4, 5-((2S,5R)-4-Acryloyl-2,5-dimethylpiperazin-1-yl)-3-chloro-8-ethyl-2-(2-fluorophenyl)-8-methyl-1,6-naphthyridin-7(8H)-one] |
| 14.3 | – | – | C=CC(=O)N1CCN(C2=NC(=O)C(C)(CC(C)C)c3nc(-c4ccccc4F)c(Cl)cc32)[C@@H](C)C1 (stereo partly drawn) [Example 3-1, 5-((S)-4-Acryloyl-2-methylpiperazin-1-yl)-3-chloro-2-(2-fluorophenyl)-8-isobutyl-8-methyl-1,6-naphthyridin-7(8H)-one] |
| 25.9 | – | – | C=CC(=O)N1C[C@H](C)N(C2=NC(=O)C(C)(c3ccccc3)c3nc(-c4ccccc4F)c(Cl)cc32)C[C@H]1C (stereo partly drawn) [Example 1-5, 5-((2S,5R)-4-Acryloyl-2,5-dimethylpiperazin-1-yl)-3-chloro-2-(2-fluorophenyl)-8-methyl-8-phenyl-1,6-naphthyridin-7(8H)-one] |
| 7.28 | – | 3.31 | C=CC(=O)N1C[C@H](C)N(C2=NC(=O)C3(CCCCC3)c3nc(-c4ccccc4F)c(Cl)cc32)C[C@H]1C [Example 1-6, 5′-((2S,5R)-4-Acryloyl-2,5-dimethylpiperazin-1-yl)-3′-chloro-2′-(2-fluorophenyl)-7′H-spiro[cyclohexane-1,8′-[16,]naphthyridin]-7′-one] |
| 1.69 | – | 0.95 | C=CC(=O)N1C[C@H](C)N(C2=NC(=O)C(C)(C3CCC3)c3nc(-c4ccccc4F)c(Cl)cc32)C[C@H]1C (stereo partly drawn) [Example 1-3, 5-((2S,5R)-4-Acryloyl-2,5-dimethylpiperazin-1-yl)-3-chloro-8-cyclobutyl-2-(2-fluorophenyl)-8-methyl-1,6-naphthyridin-7(8H)-one] |
| 8.04 | – | 1.76 | C=CC(=O)N1C[C@H](C)N(C2=NC(=O)C3(CCc4ccccc43)c3nc(-c4ccccc4F)c(Cl)cc32)C[C@H]1C (stereo partly drawn) [Example 1-7, 5′-((2S,5R)-4-Acryloyl-2,5-dimethylpiperazin-1-yl)-3′-chloro-2′-(2-fluorophenyl)-2,3-dihdyro-7′H-spiro[indene-1,8′-[1,6]naphthyridin]-7′-one] |
| 3.37 | – | 1.77 | C=CC(=O)N1C[C@H](C)N(C2=NC(=O)C3(Cc4ccccc4C3)c3nc(-c4ccccc4F)c(Cl)cc32)C[C@H]1C [Example 2-2, 5′-((2S,5R)-4-acryloyl-2,5-dimethylpiperazin-1-yl)-3′-chloro-2′-(2-fluorophenyl)-1,3-dihydro-7′H-spiro[indene-2,8′-[1,6]naphthyridin]-7′-one] |
| 2.68 | – | – | C=CC(=O)N1C[C@H](C)N(C2=NC(=O)C(C)(C3CCCC3)c3nc(-c4ccccc4F)c(Cl)cc32)C[C@H]1C (mixture of isomers) [Example 1-1, 5-((2S,5R)-4-Acryloyl-2,5-dimethylpiperazin-1-yl)-3-chloro-8-cyclopentyl-2-(2-fluorophenyl)-8-methyl-1,6-naphthyridin-7(8H)-one] |
| 20.1 | – | 1.63 | C=CC(=O)N1C[C@H](C)N(C2=NC(=O)C(C)(C3CC3)c3nc(-c4ccccc4F)c(Cl)cc32)C[C@H]1C (stereo partly drawn) [Example 1-2, 5-((2S,5R)-4-Acryloyl-2,5-dimethylpiperazin-1-yl)-3-chloro-8-cyclopropyl-2-(2-fluorophenyl)-8-methyl-1,6-naphthyridin-7(8H)-one] |
